Data published in article PMC12452389, “Arginine-Derived Cationic Surfactants Containing Phenylalanine and Tryptophan: Evaluation of Antifungal Activity, Biofilm Eradication, Cytotoxicity, and Ecotoxicity” (Journal of Xenobiotics, 2025).
In brackets after ≈: the same amount, converted by molar mass. Several values for one entry are separate records, joined by “and”; a condition that tells them apart may be missing. Identical values can stand only once. Counter-ions that a name gives are not always drawn. Like-named read-outs stand apart in the source and are kept apart here.

Key:
[1] = test system: Vibrio fischeri; experiment: Luminescence reduction test; assay type: cell-based; details: Aliivibrio fischeri, 0.25 h; Vibrio fischeri bioluminescence, 15 min of exposure; 95% confidence intervals in parentheses
Description: Ecotoxicological assessment of cationic surfactants was conducted using the Vibrio fischeri luminescent bioassay. This method relies on the measurement of decreased bioluminescent output from marine bacteria following contact with potentially toxic substances. Regression analysis was used to determine the concentration of the compound that caused a 50% reduction (EC50) in the amount of light emitted by the bacteria. The stated toxicity statistics given are based on the bacteria being exposed to the ionic liquid solution for 15 min at 15 °C.

[2] = Surface tension, pendant drop tensiometer (cmc, γc); assay type: physicochemical; details: for cmc: from surface tension
Description: Surface tension was measured using a custom-built pendant drop tensiometer, as described in detail in reference. Briefly, a droplet of surfactant solution is formed at the tip of a straight-cut Teflon tube. The image of the droplet is captured using a webcam, and its shape is analyzed by fitting the droplet profile to the Laplace–Young equation [14], To minimize evaporation, all measurements were conducted in a saturated humid atmosphere. The use of this technique is especially well-suited for cationic surfactants because it helps to mitigate complications related to surface adsorption. Critical micelle concentration values (cmc) were determined by finding the intersection of the linear fits before and after the break in the curves.

[3] = parameters: method as in PMID 36559096; details: conductivity values; cited from earlier work
[4] = test system: Candida auris ATCC 21092; experiment: MIC broth microdilution; assay type: cell-based; details: C. auris; for MIC: Candidozyma auris, ATCC21092, read-out: MIC
In short: (§1)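 Broth microdilution in RPMI 1640, twofold compound dilutions 256–2 μg/mL, final inoculum 7.5 × 10^5 CFU/mL from Sabouraud-grown colonies. MIC read by turbidity and confirmed by 0.015% resazurin, 3 h at 30 °C, blue-to-pink colour change.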

[5] = test system: Candida glabrata ATCC 66032; experiment: MIC broth microdilution; assay type: cell-based
In short: as §1

[6] = test system: Candida rugosa ATCC 10571; experiment: MIC broth microdilution; assay type: cell-based; details: C. rugosa; for MIC: Diutina rugosa, ATCC10571, read-out: MIC
In short: as §1

[7] = test system: Candida parapsilosis ATCC 22019; experiment: MIC broth microdilution; assay type: cell-based; details: C. parapsilosis; for MIC: Lodderomyces parapsilosis, ATCC22019, read-out: MIC
In short: as §1

[8] = test system: Cyberlindnera jadinii ATCC 60459 (C. jardinii); experiment: MIC broth microdilution; assay type: cell-based; details: for Selectivity Index (HC50/MIC): C. jardini; for MIC: Williopsis jadinii
In short: as §1

[9] = test system: Candida tropicalis ATCC 7349; experiment: MIC broth microdilution; assay type: cell-based; details: C. tropicalis; for MIC: Candida tropicalis, ATCC7349, read-out: MIC
In short: as §1

[10] = test system: Candida albicans ATCC 90028; experiment: MIC broth microdilution; assay type: cell-based; details: C. albicans; for MIC: Candida albicans, ATCC90028, read-out: MIC
In short: as §1

[11] = test system: erythrocytes; experiment: Hemolytic activity assay; assay type: cell-based; details: rabbit erythrocytes
In short: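 Rabbit erythrocytes washed in PBS pH 7.4, exposed to varying surfactant concentrations in PBS for 10 min at room temperature. Hemolysis read as supernatant absorbance at 540 nm relative to distilled-water 100% lysis control; HC50 taken from concentration–response curves.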

[12] = test system: Daphnia magna; experiment: Acute toxicity, immobilization test; assay type: in vivo; details: Daphnia magna, 48 h
In short: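 Neonates under 24 h old exposed in the dark at 20 °C, pH 8.0, Ca:Mg 4:1, hardness 250 mg/L as CaCO3, to ten geometric concentrations, 4 replicates of 5 animals. Immobility (no swimming after 15 s gentle stimulation) scored at 48 h; immobilization plotted against concentration on probability–log scale.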

[13] = Nakaseomyces glabratus, ATCC66032, 24 h, C. glabrata, RPMI 1640, 24 h, 30 °C, read-out: MIC
[14] = Nakaseomyces glabratus, ATCC66032, C. glabrata, value in parentheses, read-out: MIC
[15] = ATCC60459, C. jardinii, value in parentheses, read-out: MIC

CCCCCCCCCCNC(=O)C(CCCNC(=N)N)NC(=O)C(N)Cc1c[nH]c2ccccc12 (stereo not shown) [TANHC10]
EC50 [1]: 2.2 µg/mL (≈ 4.4 µM)
γc (surface tension at the cmc) [2]: 30.6 ± 2.0 mNm^−1
cmc [2]: 5.4 mM
cmc Cond [3]: 1.7 mM
Selectivity Index (HC50/MIC) ([4]; Table S2): 0.6
MIC ([4]; RPMI 1640, 24 h, 30 °C): 128 µg/mL
MIC ([4]; value in parentheses): 224 µM
Selectivity Index (HC50/MIC) ([5]; C. glabrata, Table S2): 1.15
MIC [5, 13]: 64 µg/mL
MIC [5, 14]: 112 µM
Selectivity Index (HC50/MIC) ([6]; Table S2): 18
MIC ([6]; RPMI 1640, 24 h, 30 °C): 4 µg/mL
MIC ([6]; value in parentheses): 7 µM
Selectivity Index (HC50/MIC) ([7]; Table S2): 1.15
MIC ([7]; RPMI 1640, 24 h, 30 °C): 64 µg/mL
MIC ([7]; value in parentheses): 112 µM
Selectivity Index (HC50/MIC) ([8]; Table S2): 1.15
MIC ([8]; ATCC60459, C. jardinii, RPMI 1640, 24 h, 30 °C, read-out: MIC): 64 µg/mL
MIC [8, 15]: 112 µM
Selectivity Index (HC50/MIC) ([9]; Table S2): 1.15
MIC ([9]; RPMI 1640, 24 h, 30 °C): 64 µg/mL
MIC ([9]; value in parentheses): 112 µM
Selectivity Index (HC50/MIC) ([10]; Table S2): 1.15
MIC ([10]; RPMI 1640, 24 h, 30 °C): 64 µg/mL
MIC ([10]; value in parentheses): 112 µM
HC50 ([11]; 10 min, room temperature): 74 ± 2.8 µg/mL
HC50 ([11]; value in parentheses): 129 ± 5 µM
EC50 [12]: 9.7 µg/mL (≈ 19.4 µM)

CCCCCCCCCCCCNC(=O)C(CCCNC(=N)N)NC(=O)C(N)Cc1c[nH]c2ccccc12 (stereo not shown) [TANHC12]
EC50 [1]: 1.9 µg/mL (≈ 3.6 µM)
γc (surface tension at the cmc) [2]: 28.7 ± 3.3 mNm^−1
cmc [2]: 2.5 mM
cmc Cond [3]: 0.6 mM
Selectivity Index (HC50/MIC) ([4]; Table S1): 0.12
Selectivity Index (HC50/MIC) ([4]; Table S2): 0.1
MIC ([4]; RPMI 1640, 24 h, 30 °C): 128 µg/mL
MIC ([4]; value in parentheses): 216 µM
MIC ([5]; C. glabrata, RPMI 1640, 24 h, 30 °C): 64 µg/mL
Selectivity Index (HC50/MIC) ([5]; C. glabrata, Table S1): 0.12
Selectivity Index (HC50/MIC) ([5]; C. glabrata, Table S2): 0.25
MIC [5, 13]: 128 µg/mL
MIC ([5]; Nakaseomyces glabratus, ATCC66032, 24 h, C. glabrata, value in parentheses, read-out: MIC): 216 µM
MIC [5, 14]: 108 µM
Selectivity Index (HC50/MIC) ([6]; Table S1): 3.8
Selectivity Index (HC50/MIC) ([6]; Table S2): 4
MIC ([6]; RPMI 1640, 24 h, 30 °C): 4 µg/mL
MIC ([6]; value in parentheses): 7 µM
Selectivity Index (HC50/MIC) ([7]; Table S1): 0.5
Selectivity Index (HC50/MIC) ([7]; Table S2): 0.5
MIC ([7]; RPMI 1640, 24 h, 30 °C): 32 µg/mL
MIC ([7]; value in parentheses): 54 µM
Selectivity Index (HC50/MIC) ([8]; Table S1): 0.25
Selectivity Index (HC50/MIC) ([8]; Table S2): 0.25
MIC ([8]; ATCC60459): 108 µM
MIC ([8]; ATCC60459, 24 h): 64 µg/mL
Selectivity Index (HC50/MIC) ([9]; Table S1): 0.5
Selectivity Index (HC50/MIC) ([9]; Table S2): 0.5
MIC ([9]; RPMI 1640, 24 h, 30 °C): 32 µg/mL
MIC ([9]; value in parentheses): 54 µM
Selectivity Index (HC50/MIC) ([10]; Table S1): 0.25
Selectivity Index (HC50/MIC) ([10]; Table S2): 0.25
MIC ([10]; RPMI 1640, 24 h, 30 °C): 64 µg/mL
MIC ([10]; value in parentheses): 108 µM
HC50 ([11]; 10 min, room temperature): 16 ± 0.3 µg/mL
HC50 ([11]; value in parentheses): 27 ± 0.6 µM
EC50 [12]: 3 µg/mL (≈ 5.68 µM)

CCCCCCCCCCCCNC(=O)C(CCCNC(=N)N)NC(=O)C(N)Cc1ccccc1 (stereo not shown) [PANHC12, phenylalanine-arginine dodecyl amide dihydrochloride]
EC50 [1]: 3 µg/mL
γc (surface tension at the cmc) [2]: 30.4 ± 2.6 mNm^−1
cmc [2]: 1.5 mM
cmc Cond [3]: 2.2 mM
Selectivity Index (HC50/MIC) ([4]; Table S1): 0.4
Selectivity Index (HC50/MIC) ([4]; Table S2): 0.4
MIC ([4]; RPMI 1640, 24 h, 30 °C): 64 µg/mL
MIC ([4]; value in parentheses): 112 µM
Selectivity Index (HC50/MIC) ([5]; C. glabrata, Table S1): 0.8
Selectivity Index (HC50/MIC) ([5]; C. glabrata, Table S2): 0.8
MIC [5, 13]: 32 µg/mL
MIC [5, 14]: 56 µM
Selectivity Index (HC50/MIC) ([6]; Table S1): 0.4
Selectivity Index (HC50/MIC) ([6]; Table S2): 0.4
MIC ([6]; RPMI 1640, 24 h, 30 °C): 64 µg/mL
MIC ([6]; value in parentheses): 112 µM
Selectivity Index (HC50/MIC) ([7]; Table S1): 0.8
Selectivity Index (HC50/MIC) ([7]; Table S2): 0.8
MIC ([7]; RPMI 1640, 24 h, 30 °C): 32 µg/mL
MIC ([7]; value in parentheses): 56 µM
Selectivity Index (HC50/MIC) ([8]; Table S1): 0.8
Selectivity Index (HC50/MIC) ([8]; Table S2): 0.8
MIC ([8]; ATCC60459, 24 h): 32 µg/mL and 88 µM
MIC [8, 15]: 56 µM
Selectivity Index (HC50/MIC) ([9]; Table S1): 0.8
Selectivity Index (HC50/MIC) ([9]; Table S2): 0.8
MIC ([9]; RPMI 1640, 24 h, 30 °C): 32 µg/mL
MIC ([9]; value in parentheses): 56 µM
Selectivity Index (HC50/MIC) ([10]; Table S1): 0.8
Selectivity Index (HC50/MIC) ([10]; Table S2): 0.8
MIC ([10]; RPMI 1640, 24 h, 30 °C): 32 µg/mL
MIC ([10]; value in parentheses): 56 µM
HC50 ([11]; 10 min, room temperature): 26 ± 1.2 µg/mL
HC50 ([11]; value in parentheses): 46 ± 2.2 µM
EC50 [12]: 3.4 µg/mL
